Measurements: patent publication US5710126A, “T cell epitopes of ryegrass pollen allergen” (ImmuLogic Pharmaceutical Corporation, priority 1995, dated 1998)

System: T cell lines from grass-allergic patients primed in vitro with affinity purified Lol p V
Assay: T cell proliferation (tritiated thymidine uptake) of Lol p V-primed T cell lines restimulated with peptides or proteins
Format: cell-based, human
Settings: for mean T cell stimulation index (S.I.): mean of positive responses (S.I. at least 2), FIGS. 4 and 5
Text: As discussed in Example 2, human T cell stimulating activity can be tested by culturing T cells obtained from an individual sensitive to Lol p V allergen, (i.e., an individual who has an IgE mediated immune response to Lol p V allergen) with a peptide derived from the allergen and determining whether proliferation of T cells occurs in response to the peptide as measured, e.g., by cellular uptake of tritiated thymidine. Stimulation indices for responses by T cells to peptides can be calculated as the maximum CPM in response to a peptide divided by the control CPM. A stimulation index (S.I.) equal to or greater than two times the background level is considered "positive". Positive results are used to calculate the mean stimulation index for each peptide for the group of patients tested. In FIGS. 4 and 5 the mean T cell stimulation index is indicated above the bar. Preferred peptides of this invention comprise at least one T cell epitope and have a mean T cell stimulation index of greater than or equal to 2.0. A peptide having a mean T cell stimulation index of greater than or equal to 2.0 in a significant number of ryegrass pollen sensitive patients tested is considered useful as a therapeutic agent. Preferred peptides have a mean T cell stimulation index of at least 2.5, more preferably at least 3.0, more preferably at least 3.5, more preferably at least 4.0, more preferably at least 5.0 and most preferably at least about 6. For example, peptides of the invention having a mean T cell stimulation index of at least 5, as indicated by data shown in FIGS. 4 and 5, include peptides LPIX-4 (SEQ ID NO:6), LPIX-5 (SEQ ID NO:7), LPIX-8 (SEQ ID NO:10) LPIX-17 (SEQ ID NO:19) and LPIX-19 (SEQ ID NO:21).
In addition, preferred peptides have a positivity index (P.I.) of at least about 60, more preferably about 100, more preferably at least about 200 and most preferably at least about 300. The positivity index for a peptide is determined by multiplying the mean T cell stimulation index by the percent of individuals, in a population of individuals sensitive to ryegrass pollen (e.g., preferably a population of at least 15 individuals,more preferably a population of at least 30 individuals or more), who have a T cell stimulation index to such peptide of at least 2.0. Thus, the positivity index represents both the strength of a T cell response to a peptide (S.I.) and the frequency of a T cell response to a peptide in a population of individuals sensitive to ryegrass pollen. In FIG. 4, the bar represents the positivity index and the percent of individuals tested who have a T cell stimulation index of at least 2.0 to that peptide are indicated in parenthesis above each bar (the mean T cell stimulation index is also indicated above each bar). […] Lol p V peptides having a positivity index of at least about 100 and a mean T cell stimulation index of at least about 4 include: LPIX-4 (SEQ ID NO:6), LPIX-5 (SEQ ID NO:7), and LPIX-17 (SEQ ID NO:19).
In FIG. 5, the bar represents the cumulative rank of the peptide response in the group of patients tested as described in Example 2. To determine the cumulative rank, the 5 peptides with the highest S.I. in each individual were determined and assigned a numerical rank in descending order, with 5 representing the strongest response. The ranks for each peptide were then summed for the entire group of patients tested to determine the cumulative rank for the peptide. Above each bar is the mean S.I. for each peptide and the percent of positive responses (in parenthesis) with an S.I. of at least 2 to the peptide in the group of patients tested.
This amount of priming antigen was determined to be optimal for the activation of T cells from most grass-allergic patients. Viable cells were purified by LSM centrifugation and cultured in complete medium, supplemented with 5 units recombinant human IL-2/ml and 5 units recombinant human IL-4/ml for up to 3 weeks until the desired cell number were achieved. […]

Substance | positivity index (P.I.; % of patients responding multiplied by mean S.I.) (19 patients, FIG. 4) | mean T cell stimulation index (S.I.) (19 patients) | further results
LPIX-4: synthetic overlapping peptide derived from Lol p V, sequence shown in FIG. 2 (EQKLLEDVNAGFKAAVAAAA) | at least 100 |  | 
LPIX-5: synthetic overlapping peptide derived from Lol p V, sequence shown in FIG. 2 (GFKAAVAAAANAPPADKFKI) |  |  | percent of positive responses (patients with S.I. of at least 2.0) (group of 19 patients tested, FIG. 4): 26.3%
LPIX-8: synthetic overlapping peptide derived from Lol p V, sequence shown in FIG. 2 (GLLATSAAKAPGLIPKLDTA) |  | at least 5 | 
LPIX-17: synthetic overlapping peptide derived from Lol p V, sequence shown in FIG. 2 (ATAANAAPTNDKFTVFESAF) | at least 100 |  | 
LPIX-19: synthetic overlapping peptide derived from Lol p V, sequence shown in FIG. 2 (NKALNECTGGAYETYKFIPS) |  | at least 5 | 
LPIX-20: synthetic overlapping peptide derived from Lol p V, sequence shown in FIG. 2 (AYETYKFIPSLEAAVKQAYA) |  |  | ranked sum (cumulative rank of the peptide response) (19 patients, 5 highest S.I. per individual ranked and summed, FIG. 5): highest ranked sum
